US20250161253A1, “NUTRITIONAL PRODUCT” (VITAFLO (INTERNATIONAL) LTD, priority 2012, published 2025)

Assays:
[1] = system: SH-SY5Y cells; assay: citrate synthase activity in SH-SY5Y cells (marker of mitochondrial enrichment); type: cell-based, human; details: 6 days; for effect on citrate synthase activity compared to control cells (in words): 50-300 μM
Method: Mitochondrial enrichment was estimated by evaluation of citrate synthase activity (corrected for total cellular protein content). This enzyme is localised at the mitochondria, comprises part of the TCA cycle and is commonly used as a marker of mitochondrial enrichment. A human neuroblastoma cell line (SH-SY5Y) was utilised throughout this study, except where stated. In brief, cells were exposed to a range (50-300 μM, dissolved in 0.5% DMSO) of either octanoic or decanoic acid concentrations. After 6 days, the cells were harvested and citrate synthase activity was determined. Activity was expressed as nmol/min/mg of cellular protein.

[2] = system: SH-SY5Y cells; assay: Complex I activity in SH-SY5Y cells; type: cell-based, human; details: 250 μM, 6 days
Method: In order to gain further independent insight into mitochondrial function, the activity of the respiratory chain enzyme, Complex I, was also evaluated. In a second experiment, cells were exposed to decanoic acid (250 μM, dissolved in 0.5% DMSO) for 6 days. The cells were subsequently harvested, and the activity of Complex I was determined. Each experiment was repeated 5 times, and the activity was expressed as nmol/min/mg of cellular protein.

[3] = system: SH-SY5Y cells; assay: electron microscopy analysis of mitochondrial density and morphology in SH-SY5Y cells; type: cell-based, human; details: 250 μM, p<0.002
Method: Additionally, SH-SY5Y cells were prepared for electron microscopy (EM) analysis to assess mitochondrial density and morphology following treatment with decanoic acid.

[4] = system: primary human fibroblasts; assay: citrate synthase activity in primary human fibroblasts; type: cell-based; details: 250 μM, 6 days
Method: Finally, the effect of decanoic acid was validated in an independent cell line. Primary cultures of human fibroblasts were exposed to decanoic acid at a concentration of 250 μM for 6 days. Following the incubation, citrate synthase activity was again assessed.

Compound	increase in citrate synthase activity compared to control cells ([1]; 250 μM, maximum, p<0.001) [%]	citrate synthase activity ([1]; 250 μM, n = 8, control 105 ± 5) [nmol/min/mg cell protein]	effect on citrate synthase activity compared to control cells (in words) [1]	Complex I activity with respect to control ([2]; p<0.002)	Complex I activity normalised against citrate synthase activity ([2]; p<0.05)	number of mitochondria per cell (EM) [3]	increase in citrate synthase activity [4] [%]
CCCCCCCCCC(=O)O [Decanoic Acid, decanoic acid]	30	137 ± 5	dose dependent	significant (p<0.002) increase	significant (p<0.05) increase	significant (p<0.002) increase	45
CCCCCCCC(=O)O [Octanoic acid, octanoic acid, reference compound]	–	–	no effect	–	–	–	–
